Results published in patent publication US11976098B2, “Cooked millet prolamin peptide for inhibiting alpha-amylase and alpha-glucosidase” (China Agricultural University, priority 2022, dated 2024).

The substances below were run on α-glucosidase (assay: In vitro α-glucosidase inhibitory activity (PNPG, 405 nm)). Details: sample 0.5%, 37° C., pH 6.8.
Type: biochemical
Protocol: The method for determining α-glucosidase activity is as follows: First, the solution of substrate 4-Nitrophenyl […] (PNPG) with a concentration of 1.505 mg/mL (5 mmol/L of PNPG dissolved in 0.1 mol/L phosphate buffer with a pH of 6.8) was prepared, a Na2CO3 solution with a concentration of 0.2 mol/L was prepared, and α-glucosidase solution (0.8 U/ml of α-glucosidase dissolved in 0.1 mol/L phosphate buffer with a pH of 6.8) was prepared. After the solutions were prepared, the following two groups were set for determination: [table] After preparing according to the above table, the resulting solution was shaken in a water bath at 37° C. for 10 min, followed by adding 100 μL of enzyme solution and continuing to shake in the water bath at 37° C. for 10 min. Finally, 50 μL of Na2CO3 solution was added, and the absorbance was measured at 405 nm. The formula for calculating the α-glucosidase inhibition rate is as follows: [formula]

α-glucosidase inhibition rate [%]	Substance
13.77	KAHAALGAK (The sequence is synthetized) [SEQ ID NO: 6, small peptide screened from cooked millet prolamin]
15.64	KTGSGAEGMHGGK (The sequence is synthetized) [SEQ ID NO: 5, small peptide screened from cooked millet prolamin]
15.94	QQQQLLR (The sequence is synthetized) [SEQ ID NO: 4, small peptide screened from cooked millet prolamin]

More lines, now with the values behind:

Substance	α-glucosidase inhibition rate [%]
AGAGPQGRP (The sequence is synthetized) [SEQ ID NO: 2, small peptide screened from cooked millet prolamin]	31.57
FALQGAAFLGSA (The sequence is synthetized) [SEQ ID NO: 3, small peptide screened from cooked millet prolamin]	17.67
QQLRPF (The sequence is synthetized) [SEQ ID NO: 1, small peptide screened from cooked millet prolamin]	32.67
